How the values were obtained:
Format in all cases: functional
COLO 205 = test: Growth inhibition of human COLO205 cells by sulforhodamine B assay
A549 = test: Growth inhibition of human A549/ATCC cells by sulforhodamine B assay
RPMI-8226 = test: Growth inhibition of human RPMI8226 cells by sulforhodamine B assay
IGROV-1 [1] = test: Growth inhibition of human IGROV1 cells assessed as cell growth at 10^-8 M by sulforhodamine B assay; conditions: read-out: Activity
SF-295 = test: Growth inhibition of human SF295 cells assessed as cell growth at 10^-8 M by sulforhodamine B assay; conditions: read-out: Activity
SF-268 = test: Growth inhibition of human SF268 cells assessed as cell growth at 10^-8 M by sulforhodamine B assay; conditions: read-out: Activity
NCI-H522 = test: Growth inhibition of human NCI-H522 cells assessed as cell growth at 10^-8 M by sulforhodamine B assay; conditions: read-out: Activity
HOP-62 = test: Growth inhibition of human HOP62 cells assessed as cell growth at 10^-8 M by sulforhodamine B assay; conditions: read-out: Activity
[2] = Growth inhibition of human Hs 578T cells by sulforhodamine B assay
DU-145 [3] = test: Growth inhibition of human DU145 cells by sulforhodamine B assay
TK-10 [4] = test: Growth inhibition of human TK10 cells by sulforhodamine B assay
SK-OV-3 [5] = test: Growth inhibition of human SKOV3 cells by sulforhodamine B assay
OVCAR-5 = test: Growth inhibition of human OVCAR5 cells by sulforhodamine B assay
TK-10 [6] = test: Growth inhibition of human TK10 cells assessed as cell growth at 10^-4 M by sulforhodamine B assay; conditions: read-out: Activity
786-0 = test: Growth inhibition of human 786-0 cells assessed as cell growth at 10^-4 M by sulforhodamine B assay; conditions: read-out: Activity
[7] = Growth inhibition of human NCI-ADR-RES cells assessed as cell growth at 10^-4 M by sulforhodamine B assay; conditions: read-out: Activity
OVCAR-4 = test: Growth inhibition of human OVCAR4 cells assessed as cell growth at 10^-4 M by sulforhodamine B assay; conditions: read-out: Activity
U-251 = test: Growth inhibition of human U251 cells assessed as cell growth at 10^-4 M by sulforhodamine B assay; conditions: read-out: Activity
[8] = Growth inhibition of human HCC2998 cells assessed as cell growth at 10^-4 M by sulforhodamine B assay; conditions: HCC 2998, read-out: Activity
NCI-H322M [9] = test: Growth inhibition of human NCI-H322M cells assessed as cell growth at 10^-4 M by sulforhodamine B assay; conditions: read-out: Activity
HOP-92 = test: Growth inhibition of human HOP92 cells assessed as cell growth at 10^-4 M by sulforhodamine B assay; conditions: read-out: Activity
BT-549 = test: Growth inhibition of human BT549 cells assessed as cell growth at 10^-6 M by sulforhodamine B assay; conditions: read-out: Activity
LOX IMVI [10] = test: Growth inhibition of human LOXIMVI cells assessed as cell growth at 10^-6 M by sulforhodamine B assay; conditions: read-out: Activity
SW-620 [11] = test: Growth inhibition of human SW620 cells assessed as cell growth at 10^-6 M by sulforhodamine B assay; conditions: read-out: Activity
K562 [12] = test: Growth inhibition of human K562 cells assessed as cell growth at 10^-6 M by sulforhodamine B assay; conditions: read-out: Activity
MDA-MB-468 = test: Growth inhibition of human MDA-MB-468 cells assessed as cell growth at 10^-7 M by sulforhodamine B assay; conditions: read-out: Activity
DU-145 [13] = test: Growth inhibition of human DU145 cells assessed as cell growth at 10^-7 M by sulforhodamine B assay; conditions: read-out: Activity
TK-10 [14] = test: Growth inhibition of human TK10 cells assessed as cell growth at 10^-7 M by sulforhodamine B assay; conditions: read-out: Activity
RXF 393 = test: Growth inhibition of human RXF393 cells assessed as cell growth at 10^-7 M by sulforhodamine B assay; conditions: read-out: Activity
A498 = test: Growth inhibition of human A498 cells assessed as cell growth at 10^-7 M by sulforhodamine B assay; conditions: read-out: Activity
SK-OV-3 [15] = test: Growth inhibition of human SKOV3 cells assessed as cell growth at 10^-7 M by sulforhodamine B assay; conditions: read-out: Activity
IGROV-1 [16] = test: Growth inhibition of human IGROV1 cells assessed as cell growth at 10^-7 M by sulforhodamine B assay; conditions: read-out: Activity
UACC-257 = test: Growth inhibition of human UACC257 cells assessed as cell growth at 10^-7 M by sulforhodamine B assay; conditions: read-out: Activity
LOX IMVI [17] = test: Growth inhibition of human LOXIMVI cells assessed as cell growth at 10^-7 M by sulforhodamine B assay; conditions: read-out: Activity
SW-620 [18] = test: Growth inhibition of human SW620 cells assessed as cell growth at 10^-7 M by sulforhodamine B assay; conditions: read-out: Activity
HCT-116 = test: Growth inhibition of human HCT116 cells assessed as cell growth at 10^-7 M by sulforhodamine B assay; conditions: read-out: Activity
NCI-H322M [19] = test: Growth inhibition of human NCI-H322M cells assessed as cell growth at 10^-7 M by sulforhodamine B assay; conditions: read-out: Activity
K562 [20] = test: Growth inhibition of human K562 cells assessed as cell growth at 10^-7 M by sulforhodamine B assay; conditions: read-out: Activity
CCRF-CEM = test: Growth inhibition of human CCRF-CEM cells assessed as cell growth at 10^-7 M by sulforhodamine B assay; conditions: read-out: Activity
CAKI-1 = test: Growth inhibition of human CAKI-1 cells assessed as cell growth at 10^-8 M by sulforhodamine B assay; conditions: read-out: Activity
[21] = read-out: LC50 (the source's name)
[22] = read-out: pLC50 (the source's name) (converted)

Work on `CC(C)=CC(=O)O[C@@H]1CC(C)(C)C[C@H]2C3=CC[C@@H]4[C@@]5(C)CCC(=O)C(C)(C)[C@@H]5CC[C@@]4(C)[C@]3(C)CC[C@@]12C(=O)O` yielded a GI50 (COLO 205; read-out: GI50) of 3.61 µM, an LC50 (COLO 205; read-out: LC50) of 49.1 µM and a TGI (COLO 205; read-out: TGI) of 12.3 µM. The GI50 (COLO 205; read-out: pGI50 (converted)) was 3.63 µM, the LC50 (COLO 205; read-out: pLC50 (converted)) was 49 µM and the TGI (COLO 205; read-out: pTGI (converted)) was 12.3 µM. The GI50 (A549; read-out: GI50) was 0.797 µM, the CC50 (A549; [21]) was > 100 µM and the TGI (A549; read-out: TGI) was 15.6 µM. For the same compound, the GI50 (A549; read-out: pGI50 (converted)) was 0.794 µM, the CC50 (A549; [22]) was > 100 µM and the TGI (A549; read-out: pTGI (converted)) was 15.5 µM. For the same compound, the GI50 (RPMI-8226; read-out: GI50) was 1.46 µM, the CC50 (RPMI-8226; [21]) was > 100 µM and the TGI (RPMI-8226; read-out: TGI) was 23.3 µM. For the same compound, the GI50 (RPMI-8226; read-out: pGI50 (converted)) was 1.48 µM, the CC50 (RPMI-8226; [22]) was > 100 µM and the TGI (RPMI-8226; read-out: pTGI (converted)) was 23.4 µM. For the same compound, the growth at 0.01 µM (IGROV-1 [1]) was 103%, the growth at 0.01 µM (SF-295) was 86% and the growth at 0.01 µM (SF-268) was 96%. It also gave a growth at 0.01 µM (NCI-H522) of 102%, a growth at 0.01 µM (HOP-62) of 93% and a GI50 ([2]; read-out: GI50) of 4.16 µM. The CC50 [2, 21] was > 100 µM, the TGI ([2]; read-out: TGI) was 53.6 µM and the GI50 ([2]; read-out: pGI50 (converted)) was 4.17 µM. For the same compound, the CC50 [2, 22] was > 100 µM, the TGI ([2]; read-out: pTGI (converted)) was 53.7 µM and the GI50 (DU-145 [3]; read-out: GI50) was 5.12 µM. For the same compound, the CC50 (DU-145 [3]; [21]) was 98.3 µM, the TGI (DU-145 [3]; read-out: TGI) was 25.1 µM and the GI50 (DU-145 [3]; read-out: pGI50 (converted)) was 5.13 µM. The CC50 (DU-145 [3]; [22]) was 97.7 µM, the TGI (DU-145 [3]; read-out: pTGI (converted)) was 25.1 µM and the GI50 (TK-10 [4]; read-out: GI50) was 7.02 µM. For the same compound, the CC50 (TK-10 [4]; [21]) was > 100 µM, the TGI (TK-10 [4]; read-out: TGI) was 49.6 µM and the GI50 (TK-10 [4]; read-out: pGI50 (converted)) was 7.08 µM. The CC50 (TK-10 [4]; [22]) was > 100 µM, the TGI (TK-10 [4]; read-out: pTGI (converted)) was 50.1 µM and the GI50 (SK-OV-3 [5]; read-out: GI50) was 16.6 µM. The CC50 (SK-OV-3 [5]; [21]) was > 100 µM, the TGI (SK-OV-3 [5]; read-out: TGI) was > 100 µM and the GI50 (SK-OV-3 [5]; read-out: pGI50 (converted)) was 16.6 µM. For the same compound, the CC50 (SK-OV-3 [5]; [22]) was > 100 µM, the TGI (SK-OV-3 [5]; read-out: pTGI (converted)) was > 100 µM and the GI50 (OVCAR-5; read-out: GI50) was 6.53 µM. For the same compound, the CC50 (OVCAR-5; [21]) was > 100 µM, the TGI (OVCAR-5; read-out: TGI) was 32.7 µM and the GI50 (OVCAR-5; read-out: pGI50 (converted)) was 6.61 µM. For the same compound, the CC50 (OVCAR-5; [22]) was > 100 µM, the TGI (OVCAR-5; read-out: pTGI (converted)) was 32.4 µM and the growth at 100 µM (TK-10 [6]) was -18%. For the same compound, the growth at 100 µM (786-0) was -42%, the growth at 100 µM [7] was 14% and the growth at 100 µM (OVCAR-4) was 10%. It also gave a growth at 100 µM (U-251) of -49%, a growth at 100 µM [8] of -68% and a growth at 100 µM (NCI-H322M [9]) of -25%. It also gave a growth at 100 µM (HOP-92) of -50%, a growth at 1 µM (BT-549) of 90% and a growth at 1 µM (LOX IMVI [10]) of 87%. The growth at 1 µM (SW-620 [11]) was 83%, the growth at 1 µM (K562 [12]) was 75% and the growth at 0.1 µM (MDA-MB-468) was 89%. The growth at 0.1 µM (DU-145 [13]) was 105%, the growth at 0.1 µM (TK-10 [14]) was 93% and the growth at 0.1 µM (RXF 393) was 94%. It also gave a growth at 0.1 µM (A498) of 80%, a growth at 0.1 µM (SK-OV-3 [15]) of 106% and a growth at 0.1 µM (IGROV-1 [16]) of 108%. The growth at 0.1 µM (UACC-257) was 93%, the growth at 0.1 µM (LOX IMVI [17]) was 92% and the growth at 0.1 µM (SW-620 [18]) was 97%. The growth at 0.1 µM (HCT-116) was 98%, the growth at 0.1 µM (NCI-H322M [19]) was 90% and the growth at 0.1 µM (K562 [20]) was 95%. It also gave a growth at 0.1 µM (CCRF-CEM) of 99% and a growth at 0.01 µM (CAKI-1) of 95%.
